Values joined by “and” are separate entries in the source; they are usually repeats but may differ in a detail not shown here. Equal entries are not always repeated. “Also recorded” adds a separate entry of the source.
Tests used:
IFN-γ = IFN-γ secretion in Colo-800 / MART1 T cell co-culture (ELISA); format: cell-based, human; details: monotherapy 50 nM; 72 hours after start of co-culture
Human PBMCs = assay: Activation of PBMC cells (CD25+ of CD8+ naïve T-cells, flow cytometry); format: cell-based
Protocol: In addition to the experimental determination according to the protocol provided below, said proportion of CD25+ cells withing the CD8+ naïve T-cells was simulated according to Meyer et al., 2019, Cell Systems 8, 97-108, Feb. 27, 2019.
The relative amount of activated (CD25+) naïve CD8 T cells were analyzed by flow cytometry. Non-stimulated cells served as negative control, cells stimulated with 30 ng/ml aCD3/aCD28/IgG were used as positive control.

[1] = system: EMT6 murine breast carcinoma cells; assay: Syngeneic EMT6 murine breast carcinoma model (Example 4); format: in vivo; details: EMT6 s.c. in Balb/c mice; DGKalpha inhibitor A 3 mg/kg QD, DGKzeta inhibitor A′ 5 mg/kg QD, plus isotype control 5 mg/kg Q3/4D; treatment day 8 to 23
Protocol: EMT6 murine breast carcinoma cells were inoculated s.c. into Balb/c mice (n=10/group). […] Q3/4D, every third or fourth day; QD, once daily. […] The following eight treatment groups are included: Polyethylene glycol 400 (PEG)/ethanol (EtOH)/water (60/10/30). • 1. Anti-PD-L1 (TPP-3911, 5 mg/kg) i.p., q3/4d • 2. […] DGKzeta inhibitor A' (5 mg/kg) p.o., q.d.+Isotype control (5 mg/kg) i.p., q3/4d • 4. […] Vehicle as described supra, q.d. Mice were assigned to a study at the age of 6-8 weeks. Animal husbandry, feeding and health conditions were according to animal welfare guidelines. EMT6 cell line was cultivated with appropriate medium and split at least 3 times before inoculation. Female Balb/c mice were inoculated subcutaneously with 5×10>5 tumor cells in a medium/matrigel mixture ratio of 1:1. After 8 days the mice were randomized, and therapeutic treatment started when tumors had reached a size of approx. 40-mm^2. Tumor size was measured using calipers determining length (a) and width (b), for results see FIG. 5. Tumor volume was calculated according to: […]

[2] = system: MC38 syngeneic mouse tumor model; assay: MC38 syngeneic mouse tumor model, different dose combination ratios (Example 5); format: in vivo; details: 3 mg/kg p.o. q.d. each (monotherapy, or 3 mg/kg + 3 mg/kg), day 25 after tumor inoculation
Excerpt: The objective of this study was to observe the effects of combination therapies with DGKzeta and/or DGKalpha inhibitors on the tumor volume in the MC38 syngeneic mouse tumor model upon different dose combination ratios. The following eight treatment groups are included: • 1. Vehicle • 2. […] Treatment was started on ~day 8 after tumor inoculation at ~80-100 mm^3 tumor volume. […] Day 25 after tumor inoculation).

MC38 mouse model = assay: MC38 mouse model, tumor volume, survival and re-challenge (Example 6); format: in vivo; details: for inhibition of tumor growth: 3 mg/kg p.o. QD each, versus control group; for Tumor volume: each agent 3 mg/kg, antibodies i.p. BIWx4, DGK inhibitors p.o. QD
Protocol: In order to study triple combinations or quadruple combinations with anti-CCR8 antibodies, at least one DGK inhibitor and an anti-PD(L)1 antibody, multiple experiments were performed. In order to see the differences in efficacy, the administered amounts for each individual compound or antibody were reduced to 3 mg/kg to avoid full efficacy in a monotherapy setup and to be able to evaluate the efficacy for triple and quadruple combination therapy.
Efficacy in a MC38 mouse model was analyzed in groups with 10 mice each and is shown in Table 6.1 and FIGS. 8, 9 and 10. • TPP-15285 (mIgG2a) is a surrogate antibody for anti-CCR8 antibody TPP-23411 and induces both, ADCC and ADCP. TPP-15285 was administered i.p. at 3 mg/kg with a BIWx4 administration scheme. • TPP-10748 (Iso Ctrl aCCR8) served as isotype control for TPP-15285 (mIgG2a) and was administered i.p. at 3 mg/kg with a BIWx4 administration scheme. • TPP-3911 (Atezo, mIgG1) was used as anti-PD(L)1 antibody (e.g. pembrolizumab surrogate) and was administered i.p. at 3 mg/kg with a BIWx4 administration scheme. • TPP-3267 or TPP-10149 (mIgG1) served as isotype control for anti-PD(L)1 antibody TPP-3911 (mIgGa) and were abbreviated Iso Ctrl aPD(L)1.
Antibody treatment was started on ~day 7 after tumor inoculation at ~80-100 mm^3 tumor volume, i.e. antibody administration occurred on days 7, 10, 14 and 17, after tumor inoculation. DGK inhibitor treatment started two days after the first antibody administration, i.e. on ~day 9 after tumor inoculation, i.e. DGK inhibitor was administered on day 9, 10, 11, 12, 13, 14, 15, 16, 17, 18, 19, 20 and 21 after tumor inoculation. Tumor growth inhibition was measured until tumors reached a size of 1100 mm^3 (approx. Day 20 after tumor inoculation).

MC38 tumor bearing mice = assay: MC38 tumor bearing mice, mean tumor volume (Example 7); format: in vivo; details: DGKzeta inhibitor A′ 3 mg/kg QD p.o., TPP-15285 5 mg/kg BIW i.p.
Excerpt: While the antibody administration was started on day 7 after tumor inoculation, the DGK inhibitor treatment started two days later, on day 9 after tumor inoculation. This schedule was designed to allow the efficient depletion of the Tregs by the anti-mouse CCR8 surrogate antibody before the DGK inhibitor activates the T cells. […] While the antibody administration was started on day 7 after tumor inoculation, the DGK inhibitor treatment started two days later, on day 9 after tumor inoculation. This schedule was designed to allow the efficient depletion of the Tregs by the anti-mouse CCR8 surrogate antibody before the DGK inhibitor activates the T cells. […] While the antibody administration was started on day 7 after tumor inoculation, the DGKalpha and DGKzeta inhibitor treatment started two days later, on day 9 after tumor inoculation. This schedule was designed to allow the efficient depletion of the Tregs by the anti-mouse CCR8 surrogate antibody before the DGK inhibitor activates the T cells. […] The DGKalpha and DGKzeta inhibitor treatment started on day 9 after tumor inoculation.

[3] = 4 days after start of treatment
[4] = 7 days after start of treatment
[5] = 10 days after start of treatment
[6] = 12 days after start of treatment
[7] = 14 days after start of treatment
[8] = 17 days after start of treatment
[9] = −1 days after start of treatment (6 days after start of transplantation)
[10] = Day 0 (day 7 after tumor inoculation), DGKalpha inhibitor A 5 mg/kg QD p.o.
[11] = Day 4, DGKalpha inhibitor A 5 mg/kg QD p.o.
[12] = Day 7, DGKalpha inhibitor A 5 mg/kg QD p.o.
[13] = Day 11, DGKalpha inhibitor A 5 mg/kg QD p.o.
[14] = Day 14, DGKalpha inhibitor A 5 mg/kg QD p.o.
[15] = Day 18, DGKalpha inhibitor A 5 mg/kg QD p.o.

| SMILES | increase in IFN-γ secretion (IFN-γ) | tumor growth inhibition [1] | inhibition of tumor growth [2] | inhibition of tumor growth (MC38 mouse model) | Tumor volume (MC38 mouse model; [3]) [mm^3] | Tumor volume (MC38 mouse model; [4]) [mm^3] | Tumor volume (MC38 mouse model; [5]) [mm^3] | Tumor volume (MC38 mouse model; [6]) [mm^3] | Tumor volume (MC38 mouse model; [7]) [mm^3] | Tumor volume (MC38 mouse model; [8]) [mm^3] | Tumor volume (MC38 mouse model; [9]) [mm^3] | Mean tumor volume (MC38 tumor bearing mice; [10]) [mm^3] | Mean tumor volume (MC38 tumor bearing mice; [11]) [mm^3] | Mean tumor volume (MC38 tumor bearing mice; [12]) [mm^3] | Mean tumor volume (MC38 tumor bearing mice; [13]) [mm^3] | Mean tumor volume (MC38 tumor bearing mice; [14]) [mm^3] | Mean tumor volume (MC38 tumor bearing mice; [15]) [mm^3] | further results |
| --- | --- | --- | --- | --- | --- | --- | --- | --- | --- | --- | --- | --- | --- | --- | --- | --- | --- | --- |
| Cc1ccc2oc(C3CCN(c4c(C(N)=O)c(=O)n(C)c5ccc(F)cc45)CC3)nc2c1 [DGKalpha inhibitor A, 6-fluoro-1-methyl-4-[4-(5-methyl-1,3-benzoxazol-2-yl)piperidin-1-yl]-2-oxo-1,2-dihydroquinoline-3-carboxamide] | slight | only moderate tumor growth inhibitions | only moderate inhibition of tumor growth; also recorded: no single agent activity | only moderate inhibition of tumor growth | 134.0 | 207.0 | 412.4 | 524.8 | 735.4 | 1122.5 | 62.0 | 91.74 | 216.59 | 483.4 | 1057.04 | 1585.28 | 2961.81 | CD25+ of CD8+ naïve T-cells, Observed (Human PBMCs; unbound DGKai 0.024 nM, DGKzi 0 nM): 4.1% and 3.1% and 12%; CD25+ of CD8+ naïve T-cells, Observed (Human PBMCs; unbound DGKai 0.24 nM, DGKzi 0 nM): 3.4% and 5.1% and 6.4%; CD25+ of CD8+ naïve T-cells, Observed (Human PBMCs; unbound DGKai 2.4 nM, DGKzi 0 nM): 8.3% and 2.1% and 5%; CD25+ of CD8+ naïve T-cells, Observed (Human PBMCs; unbound DGKai 24 nM, DGKzi 0 nM): 6.8% and 5.4% and 7.3%; CD25+ of CD8+ naïve T-cells, Observed (Human PBMCs; unbound DGKai 72 nM, DGKzi 0 nM): 9% and 6.7% and 12% |
| COc1ccc(C(=O)c2sc(N(c3ccc(F)cc3)[C@H](C)C(N)=O)nc2N)cc1 [DGKzeta inhibitor A′, (R)-2-(N-[4-amino-5-(4-methoxybenzoyl)thiazol-2-yl]-4-fluoro-anilino)propanamide] | moderate | only moderate tumor growth inhibitions | only moderate inhibition of tumor growth | only moderate inhibition of tumor growth | 115.9 | 211.9 | 322.0 | 508.0 | 684.4 | 1097.3 | 62.4 | 91.65 | 216.68 | 480.5 | 982.9 | 1448.04 | 2879.9 | CD25+ of CD8+ naïve T-cells, Observed (Human PBMCs; unbound DGKai 0 nM, DGKzi 0.037 nM): 2% and 3.2%; CD25+ of CD8+ naïve T-cells, Observed (Human PBMCs; unbound DGKai 0 nM, DGKzi 0.37 nM): 1.7% and 1.6% and 4.2%; CD25+ of CD8+ naïve T-cells, Observed (Human PBMCs; unbound DGKai 0 nM, DGKzi 3.7 nM): 6% and 4.9% and 6.4%; CD25+ of CD8+ naïve T-cells, Observed (Human PBMCs; unbound DGKai 0 nM, DGKzi 11 nM): 15% and 10%; CD25+ of CD8+ naïve T-cells, Observed (Human PBMCs; unbound DGKai 0 nM, DGKzi 37 nM): 29% and 18%; CD25+ of CD8+ naïve T-cells, Observed (Human PBMCs; unbound DGKai 0 nM, DGKzi 111 nM): 34% and 25% and 35%; CD25+ of CD8+ naïve T-cells, Observed (Human PBMCs; unbound DGKai 0 nM, DGKzi 370 nM): 32% and 44% and 31% |

From patent US20260232652A1, “COMBINATIONS OF DGK (DIACYLGLYCEROL KINASE) INHIBITORS” (priority 2023, published 2026)
